# Source: patent publication US4196205A, “3-Acetoxymethyl-7-(iminoacetamido)-cephalosporanic acid derivatives” (priority 1976, dated 1980)
# Like-named read-outs stand apart in the source and are kept apart here.
# How the values were obtained:
# [1] = system: Escherichia Coli (T) O26 B6; test: Experimental infection with Escherichia Coli (T) O26 B6 in mice (21.5 g, culture diluted 1/6); assay type: in vivo, male mice
# Protocol: (§1) The product of Example 4 was studied for its activity against an experimental infection of Escherichia Coli in groups of 10 male mice weighing about 21.5 g. The mice recieved an intraperitoneal injection of 0.5 ml of a 24 hour old culture in a nutritive media of Escherichia Coli (T) O26 B6 of the Pasteur Institute diluted 1/6 with distilled water. The test product was administered subcutaneously or orally 1 hour and 5 and 24 hours after the infection and the number of dead was determined after 8 days.
# [2] = system: Escherichia Coli Resistant Tetracycline ATCC 11 303 = UC 1261; test: MIC, dilution in liquid medium; assay type: cell-based; details: Escherichia coli, read-out: M.I.C.
# Outline: (§2)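 Tube dilution in sterile nutrient broth with increasing compound doses, each tube inoculated with the strain. Incubation 24 to 48 hours at 37° C; MIC (g/ml) read by transillumination.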
# [3] = system: Escherichia Coli 25 575; test: MIC, dilution in liquid medium; assay type: cell-based
# Outline: as §2
# [4] = system: Salmonella typhimurium 420; test: MIC, dilution in liquid medium; assay type: cell-based; details: Salmonella enterica, TYPHIMURIUM
# Outline: as §2
# [5] = system: Streptococcus faecalis 5 432; test: MIC, dilution in liquid medium; assay type: cell-based
# Outline: as §2
# [6] = system: Klebsiella pneumoniae Exp. 52 145; test: MIC, dilution in liquid medium; assay type: cell-based; details: Klebsiella pneumoniae, read-out: M.I.C.
# Outline: as §2
# [7] = system: Streptococcus pyogenes A 561; test: MIC, dilution in liquid medium; assay type: cell-based; details: for MIC: Streptococcus pyogenes, read-out: M.I.C.
# Outline: as §2
# [8] = system: Pseudomonas 8951 RGT; test: MIC, dilution in liquid medium; assay type: cell-based
# Outline: as §2
# [9] = system: Streptococcus faecalis 99 F 74; test: MIC, dilution in liquid medium; assay type: cell-based; details: Enterococcus faecalis
# Outline: as §2
# [10] = system: Straphylococcus Smith; test: MIC, dilution in liquid medium; assay type: cell-based
# Outline: as §2
# [11] = system: Staphylococcus aureus exp. n° 54 146; test: MIC, dilution in liquid medium; assay type: cell-based; details: Staphylococcus aureus
# Outline: as §2
# [12] = system: Escherichia Coli Resistant Gentamicine, Tobramycine R 55 123 D; test: MIC, dilution in liquid medium; assay type: cell-based; details: for MIC: Escherichia coli
# Outline: as §2
# [13] = system: Escherichia Coli T 96 875; test: MIC, dilution in liquid medium; assay type: cell-based
# Outline: as §2
# [14] = system: Pseudomonas 3 935 Exp. SG; test: MIC, dilution in liquid medium; assay type: cell-based; details: Pseudomonas, 3935EXP.SG
# Outline: as §2
# [15] = system: Serratia Resistant Gentamicine 2 532; test: MIC, dilution in liquid medium; assay type: cell-based
# Outline: as §2
# [16] = system: Escherichia Coli Exp. TO26 B6; test: MIC, dilution in liquid medium; assay type: cell-based; details: Escherichia coli
# Outline: as §2
# [17] = system: Klebsiella pneumoniae 2 536 Resistant Gentamicine; test: MIC, dilution in liquid medium; assay type: cell-based; details: for MIC: Klebsiella pneumoniae
# Outline: as §2
# [18] = system: Proteus mirabilis (indol-) A 235; test: MIC, dilution in liquid medium; assay type: cell-based; details: Proteus mirabilis, read-out: M.I.C.
# Outline: as §2
# [19] = system: Escherichia Coli E6; test: MIC, dilution in liquid medium; assay type: cell-based
# Outline: as §2
# [20] = system: Staphylococcus aureus ATCC 5 638 Pen-Sensible = UC 1061; test: MIC, dilution in liquid medium; assay type: cell-based
# Outline: as §2
# [21] = system: Bacillus subtilis ATCC 6 633; test: MIC, dilution in liquid medium; assay type: cell-based; details: for MIC: Bacillus subtilis
# Outline: as §2
# [22] = system: Enterobacter cloacae 681; test: MIC, dilution in liquid medium; assay type: cell-based
# Outline: as §2
# [23] = system: Staphylococcus aureus UC 1 128 Pen-Resistant; test: MIC, dilution in liquid medium; assay type: cell-based; details: Staphylococcus aureus
# Outline: as §2
# [24] = system: Escherichia Coli Galle; test: MIC, dilution in liquid medium; assay type: cell-based
# Outline: as §2
# [25] = system: Proteus vulgaris (indol+) A 232; test: MIC, dilution in liquid medium; assay type: cell-based
# Outline: as §2
# [26] = system: Escherichia Coli Sensible Tetracycline ATCC 9 637 = 1020; test: MIC, dilution in liquid medium; assay type: cell-based; details: for MIC: Escherichia coli
# Outline: as §2
# [27] = system: Providencia Du 48; test: MIC, dilution in liquid medium; assay type: cell-based; details: for MIC: Providencia
# Outline: as §2
# [28] = system: Escherichia Coli (T) O26 B6; test: Experimental infection with Escherichia Coli (T) O26 B6 in mice, repeated (22.5 g, culture diluted 1/5.5); assay type: in vivo
# Protocol: as §1
# The procedure was repeated with mice weighing about 22.5 g with an intraperitoneal injection of a 24 hour old culture of Escherichia Coli (T) O26 B6 diluted 1/5.5 with distilled water with the product of Example 4.
# [29] = system: Staphylococcus aureus Co 15 Resistant Cephalexine; test: MIC, dilution in liquid medium; assay type: cell-based
# Outline: as §2
# [30] = Enterococcus faecalis, 5432, 24 h, 24 H
compound,measurement,setting,value
"CO/N=C(\C(=O)N[C@@H]1C(=O)N2C(C(=O)O)=C(COC(C)=O)CS[C@H]12)c1csc(N)n1 [Example 4, 3-acetoxymethyl-7-[2-(2-amino-4-thiazolyl)-2-methoxyiminoacetamido]-ceph-3-eme-4-carboxylic acid]",mice alive after 8 days,[1]; 0.05 mg subcutaneously,10/10
same,deaths after 28.5 h (out of 10 mice),[1]; 0.1 mg orally,1
same,mice alive after 8 days,[1]; 0.1 mg orally,9/10
same,mice alive after 8 days,[1]; 0.1 mg subcutaneously (first line),10/10
same,mice alive after 8 days,[1]; 0.1 mg subcutaneously (second line),10/10
same,mice alive after 8 days,[1]; 0.25 mg orally,10/10
same,mice alive after 8 days,[1]; 0.25 mg subcutaneously,10/10
same,mice alive after 8 days,[1]; 0.5 mg orally,10/10
same,MIC,[2]; 24 h,0.02 µg/mL
same,MIC,[2]; 48 h,0.02 µg/mL
same,MIC,"[3]; COLI25575, 24 h",0.05 µg/mL
same,MIC,"[3]; COLI25575, 48 h",0.05 µg/mL
same,MIC,"[4]; 24 h, read-out: M.I.C.",0.2 µg/mL
same,MIC,"[4]; 48 h, read-out: M.I.C.",0.2 µg/mL
same,MIC,[5]; [30],2 µg/mL
same,MIC,"[5]; Enterococcus faecalis, 5432, 48 h, 48 H",2 µg/mL
same,MIC,"[6]; EXP.52145, 24 h, 24 H",0.02 µg/mL
same,MIC,"[6]; EXP.52145, 48 h, 48 H",0.02 µg/mL
same,M.I.C.,[7]; 48 H,"0,05 μg/ml"
same,MIC,"[7]; A561, 24 h, 24 H",0.02 µg/mL
same,MIC,[8]; 24 h,40 µg/mL
same,MIC,[8]; 48 h,> 40 µg/mL
same,MIC,"[9]; 99F74, 24 h, 24 H",2 µg/mL
same,MIC,"[9]; 99F74, 48 h, 48 H",3 µg/mL
same,MIC,[10]; 24 h,1 µg/mL
same,MIC,[10]; 48 h,1 µg/mL
same,MIC,"[11]; 24 h, read-out: M.I.C.",3 µg/mL
same,MIC,[11]; 48 h,3 µg/mL
same,M.I.C.,[12]; 24 H,"0,6 μg/ml"
same,M.I.C.,[12]; 48 H,"0,6-1 μg/ml"
same,MIC,"[13]; COLIT96875, 24 h",0.05 µg/mL
same,MIC,"[13]; COLIT96875, 48 h",0.05 µg/mL
same,MIC,"[14]; 24 h, read-out: M.I.C.",10 µg/mL
same,MIC,[14]; 48 h,40 µg/mL
same,MIC,"[15]; 24 h, read-out: M.I.C.",1 µg/mL
same,MIC,"[15]; 48 h, read-out: M.I.C.",1 µg/mL
same,MIC,[16]; 48 h,0.1 µg/mL
same,M.I.C.,[17]; 24 H,"0,6 μg/ml"
same,M.I.C.,[17]; 48 H,"0,6 μg/ml"
same,MIC,[18]; 24 h,0.02 µg/mL
same,MIC,[18]; 48 h,0.02 µg/mL
same,MIC,"[19]; COLIE6, 24 h",0.05 µg/mL
same,MIC,"[19]; COLIE6, 48 h",0.05 µg/mL
same,MIC,"[20]; 24 h, read-out: M.I.C.",1 µg/mL
same,MIC,"[20]; 48 h, read-out: M.I.C.",1 µg/mL
same,M.I.C.,[21]; 24 H,"0,2 μg/ml"
same,MIC,"[21]; ATCC6, 48 h, 48 H, read-out: M.I.C.",1 µg/mL
same,MIC,"[22]; Enterobacter cloacae, 681, 24 h",40 µg/mL
same,MIC,"[22]; Enterobacter cloacae, 681, 48 h",40 µg/mL
same,MIC,"[23]; UC1, 24 h, 24 H",2 µg/mL
same,MIC,"[23]; UC1, 48 h, 48 H",2 µg/mL
same,MIC,[24]; 24 h,0.1 µg/mL
same,MIC,[24]; 48 h,0.2 µg/mL
same,M.I.C.,[25]; 24 H,2 µg/mL
same,M.I.C.,[25]; 48 H,40 µg/mL
same,M.I.C.,[26]; 48 H,"0,2 μg/ml"
same,MIC,"[26]; ATCC9, 24 h, 24 H, read-out: M.I.C.",0.2 µg/mL
same,M.I.C.,[27]; 24 H,5 µg/mL
same,M.I.C.,[27]; 48 H,5 µg/mL
same,MORTALITY AFTER 9H 35,"[28]; 0,1 mg OS",1
same,MORTALITY AFTER 24H,"[28]; 0,1 mg OS",1
same,MORTALITY AFTER 32H,"[28]; 0,1 mg OS",2
same,MORTALITY AFTER 70H,"[28]; 0,1 mg OS",1
same,Mice alive on the 8th Day,"[28]; 0,1 mg OS",5/10
same,MORTALITY AFTER 22H 30,"[28]; 0,05 mg OS",4
same,MORTALITY AFTER 24H,"[28]; 0,05 mg OS",1
same,MORTALITY AFTER 31H,"[28]; 0,05 mg OS",1
same,MORTALITY AFTER 32H,"[28]; 0,05 mg OS",2
same,Mice alive on the 8th Day,"[28]; 0,05 mg OS",2/10
same,Mice alive on the 8th Day,"[28]; 0,05 mg S.C.",10/10
same,Mice alive on the 8th Day,"[28]; 0,25 mg OS",10/10
same,MORTALITY AFTER 22H 30,"[28]; 0,015 mg S.C.",2
same,MORTALITY AFTER 23H 50,"[28]; 0,015 mg S.C.",2
same,MORTALITY AFTER 46H 30,"[28]; 0,015 mg S.C.",2
same,Mice alive on the 8th Day,"[28]; 0,015 mg S.C.",4/10
same,MORTALITY AFTER 4j,"[28]; 0,025 mg S.C.",2
same,MORTALITY AFTER 25H 50,"[28]; 0,025 mg S.C.",1
same,MORTALITY AFTER 26H 30,"[28]; 0,025 mg S.C.",1
same,Mice alive on the 8th Day,"[28]; 0,025 mg S.C.",6/10
"C=CCO/N=C(\C(=O)N[C@@H]1C(=O)N2C(C(=O)O)=C(COC(C)=O)CS[C@H]12)c1csc(N)n1 [Example 9, 3-acetoxymethyl-7-[2-(2-amino-4-thiazolyl)-2-(2-propenyl)oxyiminoacetamido]-ceph-3-eme-4-carboxylic acid]",MIC,[2]; 24 h,0.1 µg/mL
same,MIC,[2]; 48 h,0.1 µg/mL
same,MIC,[4]; 24 h,1 µg/mL
same,MIC,"[4]; 48 h, read-out: M.I.C.",10 µg/mL
same,MIC,[5]; [30],2 µg/mL
same,MIC,"[5]; Enterococcus faecalis, 5432, 48 h, read-out: M.I.C.",10 µg/mL
same,MIC,"[6]; EXP.52145, 24 h, 24 H",0.05 µg/mL
same,MIC,"[6]; EXP.52145, 48 h, 48 H",0.1 µg/mL
same,MIC,"[7]; A561, 24 h, 24 H",0.02 µg/mL
same,MIC,"[7]; A561, 48 h, 48 H",0.02 µg/mL
same,MIC,[11]; 24 h,2 µg/mL
same,MIC,[11]; 48 h,2 µg/mL
same,MIC,[12]; 24 h,1 µg/mL
same,MIC,[12]; 48 h,1 µg/mL
same,MIC,[14]; 24 h,20 µg/mL
same,MIC,[14]; 48 h,20 µg/mL
same,MIC,"[15]; 24 h, read-out: M.I.C.",0.4 µg/mL
same,MIC,[15]; 48 h,1 µg/mL
same,MIC,[16]; 24 h,1 µg/mL
same,MIC,[16]; 48 h,1 µg/mL
same,MIC,[17]; 24 h,2 µg/mL
same,MIC,[17]; 48 h,5 µg/mL
same,MIC,[20]; 24 h,1 µg/mL
same,MIC,[20]; 48 h,2 µg/mL
same,MIC,"[21]; ATCC6, 24 h, 24 H",1 µg/mL
same,MIC,"[21]; ATCC6, 48 h, 48 H",1 µg/mL
same,MIC,"[29]; 24 h, read-out: M.I.C.",10 µg/mL
same,MIC,[29]; 48 h,20 µg/mL
same,MIC,"[23]; UC1, 24 h, 24 H",2 µg/mL
same,MIC,"[23]; UC1, 48 h, 48 H",2 µg/mL
same,MIC,"[25]; Proteus vulgaris, 24 h",2 µg/mL
same,MIC,"[26]; ATCC9, 24 h, 24 H",1 µg/mL
same,MIC,"[26]; ATCC9, 48 h, 48 H",1 µg/mL
same,MIC,"[27]; DU48, 24 h, 24 H",3 µg/mL
same,MIC,"[27]; DU48, 48 h, 48 H",5 µg/mL
